Values after ≈ are worked out from the molar mass of the structure shown. Active and inactive are the calls of the source. The calls are words filed in the database; no cut-off is given here.
Legend:
[1] = target: T1, Neuronal acetylcholine receptor subunit alpha-7 (Homo sapiens, UniProt P36544); assay: Positive allosteric modulator activity at human alpha7 nAChR expressed in Flp-In HEK293 cells assessed as increase in calcium influx incubated for 10 mins by fluorescence based analysis; format: cell-based
T1 sequence (P36544 whole entry): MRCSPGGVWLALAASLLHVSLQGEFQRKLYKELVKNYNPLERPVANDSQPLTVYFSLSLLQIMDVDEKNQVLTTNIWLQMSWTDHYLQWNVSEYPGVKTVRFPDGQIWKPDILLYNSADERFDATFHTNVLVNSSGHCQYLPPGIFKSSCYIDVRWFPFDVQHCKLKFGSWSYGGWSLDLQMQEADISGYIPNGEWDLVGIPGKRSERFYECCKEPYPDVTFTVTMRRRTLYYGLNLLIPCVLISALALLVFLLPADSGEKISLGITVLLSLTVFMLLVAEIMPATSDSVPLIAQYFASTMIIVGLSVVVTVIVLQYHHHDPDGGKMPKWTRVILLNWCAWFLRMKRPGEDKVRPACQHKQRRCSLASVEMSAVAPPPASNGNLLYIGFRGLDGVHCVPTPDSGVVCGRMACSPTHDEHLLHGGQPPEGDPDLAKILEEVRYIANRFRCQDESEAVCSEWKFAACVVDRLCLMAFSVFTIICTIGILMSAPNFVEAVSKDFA

[2] = Metabolic stability in Wistar rat liver microsome assessed as intrinsic clearance measured per mg of protein incubated for 40 mins; format: ADME; conditions: liver microsomes, read-out: CLH
[3] = Kinetic solubility of compound at pH 7.4 incubated for 2 hrs by UV-HPLC analysis; format: physicochemical; conditions: buffer, read-out: Kinetic_solubility
[4] = Metabolic stability in human liver microsome assessed as intrinsic clearance measured per mg of protein incubated for 40 mins; format: ADME; conditions: liver microsomes, read-out: CLH
[5] = Metabolic stability in NMRI mouse liver microsome assessed as intrinsic clearance measured per mg of protein incubated for 40 mins; format: ADME; conditions: liver microsomes, read-out: CLH
[6] = target: T1, Neuronal acetylcholine receptor subunit alpha-7; assay: Positive allosteric modulator activity at human alpha7 nAChR expressed in Flp-In HEK293 cells assessed as increase in calcium influx at 10 uM incubated for 10 mins by fluorescence based analysis relative to control; format: cell-based
[7] = system: Mus musculus; assay: Cognitive activity in scopolamine induced amnesia NMRI mouse model assessed as recognition index at 1 to 10 mg/kg, ip pretreated with compound for 30 mins followed by scopolamine induction by Y maze test; format: functional, organism-based; conditions: dose 1-10 mg/kg
[8] = filed as positive allosteric modulator

EC50 [1]	microsomal CLint [2]	solubility kinetic at 2 h [3]	microsomal CLint [4]	microsomal CLint [5]	Emax [6]	Emax [6, 8]	Structure (SMILES)	Activity [7]
220 nM	23 µL/min/mg	41 µM (≈ 18.6 µg/mL)	27 µL/min/mg	–	–	–	O=C(NCc1ccc2[nH]c(C(F)F)cc2c1)N1CC(COc2ccc(C(F)(F)F)cc2)C1	–
150 nM	63 µL/min/mg	78.1 µM (≈ 31.6 µg/mL)	37 µL/min/mg	78 µL/min/mg	–	–	O=C(NCc1ccc2[nH]ccc2c1)N1CC(COc2ccc(C(F)(F)F)cn2)C1	–
–	–	0.6 µM (≈ 0.291 µg/mL)	–	–	3%	–	O=C(NCc1ccc2c(ccn2CC(F)(F)F)c1)N1CC(COc2ccc(C(F)(F)F)cc2)C1	–
140 nM	52 µL/min/mg	51.5 µM (≈ 19.3 µg/mL)	11 µL/min/mg	100 µL/min/mg	–	–	Cc1cc2cc(CNC(=O)N3CC4(CC(=O)c5ccccc5O4)C3)ccc2[nH]1	–
2200 nM	–	5.3 µM (≈ 2.34 µg/mL)	43 µL/min/mg	–	–	–	Cn1cc(C#N)c2cc(CNC(=O)N3CC(COc4ccc(C(F)(F)F)cc4)C3)ccc21	–
300 nM	–	0.6 µM (≈ 0.259 µg/mL)	54 µL/min/mg	–	–	–	Cc1cc2cc(CNC(=O)N3CC(COc4ccc(C(F)(F)F)cc4)C3)cnc2n1C	–
70 nM	–	–	41 µL/min/mg	–	–	–	Cc1cc2cc(CNC(=O)N3CC(COc4ccc(C(F)(F)F)cc4)C3)ccc2n1C	–
55 nM	–	0.1 µM (≈ 0.0436 µg/mL)	107 µL/min/mg	–	–	–	Cn1cc(F)c2cc(CNC(=O)N3CC(COc4ccc(C(F)(F)F)nc4)C3)ccc21	–
80 nM	–	0.5 µM (≈ 0.209 µg/mL)	61 µL/min/mg	–	–	–	Cn1ccc2cc(CNC(=O)N3CC(COc4ccc(Cl)c(Cl)c4)C3)ccc21	–
590 nM	–	9.2 µM (≈ 3.61 µg/mL)	–	–	–	–	Cn1ccc2cc(CNC(=O)N3CC(COc4ccc(F)c(C#N)c4)C3)ccc21	–
–	–	9.7 µM (≈ 3.98 µg/mL)	128 µL/min/mg	–	–	–	Cn1cc(Cl)c2cc(CNC(=O)N3CC4(CC(=O)c5ccccc5O4)C3)ccc21	–
–	–	0.2 µM (≈ 0.0863 µg/mL)	28 µL/min/mg	–	–	83%	CCn1ccc2cc(CNC(=O)N3CC(COc4ccc(C(F)(F)F)cc4)C3)ccc21	–
–	38 µL/min/mg	20.4 µM (≈ 9.05 µg/mL)	49 µL/min/mg	–	20%	–	Cn1cc(C#N)c2cc(CNC(=O)N3CC(COc4ccc(C(F)(F)F)cc4)C3)cnc21	–
–	–	0.1 µM (≈ 0.0476 µg/mL)	–	–	0%	–	COCCc1cc2cc(CNC(=O)N3CC(COc4ccc(C(F)(F)F)cc4)C3)ccc2n1C	–
–	46 µL/min/mg	51.5 µM (≈ 19.3 µg/mL)	24 µL/min/mg	52 µL/min/mg	–	–	Cn1ccc2cc(CNC(=O)N3CC4(CC(=O)c5ccccc5O4)C3)ccc21	Active
2800 nM	–	31 µM (≈ 12.2 µg/mL)	–	–	–	–	Cn1ccc2cc(CNC(=O)N3CC(COc4ccc(F)cc4C#N)C3)ccc21	–
1200 nM	–	14.2 µM (≈ 6.14 µg/mL)	–	–	–	–	Cc1cn(C)c2ncc(CNC(=O)N3CC(COc4ccc(C(F)(F)F)cc4)C3)cc12	–
500 nM	23 µL/min/mg	12 µM (≈ 5.25 µg/mL)	25 µL/min/mg	43 µL/min/mg	–	–	O=C(NCc1ccc2[nH]cc(Cl)c2c1)N1CC(COc2ccc(C(F)(F)F)cc2)C1	–
260 nM	–	4.5 µM (≈ 1.97 µg/mL)	29 µL/min/mg	–	–	–	O=C(NCc1cnc2[nH]c(Cl)cc2c1)N1CC(COc2ccc(C(F)(F)F)cc2)C1	–
–	34 µL/min/mg	36.4 µM (≈ 14.3 µg/mL)	18 µL/min/mg	51 µL/min/mg	–	–	Cc1cc2cc(CNC(=O)N3CC4(CC(=O)c5cc(F)ccc5O4)C3)ccc2[nH]1	–
490 nM	–	13.4 µM (≈ 5.06 µg/mL)	323 µL/min/mg	–	–	–	Cc1ccc(OCC2CN(C(=O)NCc3ccc4[nH]c(C)c(C)c4c3)C2)cc1	–
–	–	0.9 µM (≈ 0.401 µg/mL)	–	–	1%	–	CC(C)n1ccc2cc(CNC(=O)N3CC(COc4ccc(C(F)(F)F)cc4)C3)ccc21	–
–	–	0.3 µM (≈ 0.138 µg/mL)	–	–	0%	–	Cn1c(C2CC2)cc2cc(CNC(=O)N3CC(COc4ccc(C(F)(F)F)cc4)C3)cnc21	–
–	14 µL/min/mg	5.1 µM (≈ 2.48 µg/mL)	16 µL/min/mg	–	1%	–	Cc1nnc(-c2cc3cc(CNC(=O)N4CC(COc5ccc(C(F)(F)F)cc5)C4)ccc3[nH]2)o1	–

EC50 [1]	microsomal CLint [2]	solubility kinetic at 2 h [3]	microsomal CLint [4]	microsomal CLint [5]	Emax [6]	Emax [6, 8]	Structure (SMILES)	Activity [7]
–	80 µL/min/mg	30.9 µM (≈ 12.7 µg/mL)	8 µL/min/mg	121 µL/min/mg	–	–	Cc1cc2cc(CNC(=O)N3CC4(CC(=O)c5cc(F)cc(F)c5O4)C3)ccc2[nH]1	–
–	–	0.2 µM (≈ 0.0904 µg/mL)	–	–	7%	–	Cn1c(Cl)cc2cc(CNC(=O)N3CC(COc4ccc(C(F)(F)F)cc4)C3)ccc21	–
100 nM	25 µL/min/mg	38.7 µM (≈ 15.2 µg/mL)	14 µL/min/mg	64 µL/min/mg	–	–	Cc1cc2cc(CNC(=O)N3CC4(CC(=O)c5ccc(F)cc5O4)C3)ccc2[nH]1	Active
3100 nM	–	49.9 µM (≈ 20.2 µg/mL)	–	–	–	–	O=C(NCc1cnc2[nH]ccc2c1)N1CC(COc2ccc(C(F)(F)F)cc2)C1	–
360 nM	53 µL/min/mg	61.1 µM (≈ 23.5 µg/mL)	34 µL/min/mg	57 µL/min/mg	–	–	Cn1ccc2cc(CNC(=O)N3CC(COc4ccc(Cl)cc4)C3)cnc21	–
40 nM	–	0.9 µM (≈ 0.377 µg/mL)	61 µL/min/mg	–	–	–	Cn1ccc2cc(CNC(=O)N3CC(COc4ccc(C(F)(F)F)cn4)C3)ccc21	–
200 nM	96 µL/min/mg	< 0.1 µM	30 µL/min/mg	140 µL/min/mg	–	–	Cn1cc(Cl)c2cc(CNC(=O)N3CC(COc4ccc(C(F)(F)F)cc4)C3)ccc21	–
230 nM	176 µL/min/mg	21.1 µM (≈ 8.35 µg/mL)	22 µL/min/mg	178 µL/min/mg	–	–	O=C1CC2(CN(C(=O)NCc3ccc4[nH]c(Cl)cc4c3)C2)Oc2ccccc21	–
390 nM	–	7.2 µM (≈ 3.26 µg/mL)	97 µL/min/mg	–	–	–	Cn1cc(Cl)c2cc(CNC(=O)N3CC(COc4ccc(C(F)(F)F)cc4)C3)cnc21	–
250 nM	39 µL/min/mg	16.3 µM (≈ 6.87 µg/mL)	24 µL/min/mg	47 µL/min/mg	–	–	O=C(NCc1ccc2[nH]ccc2c1)N1CC(COc2ccc(C(F)(F)F)cc2F)C1	–
–	–	0.2 µM (≈ 0.0906 µg/mL)	–	–	4%	–	Cn1c(Cl)cc2cc(CNC(=O)N3CC(COc4ccc(C(F)(F)F)cc4)C3)cnc21	–
–	–	6.9 µM (≈ 3.08 µg/mL)	–	–	0%	–	NC(=O)c1cc2cc(CNC(=O)N3CC(COc4ccc(C(F)(F)F)cc4)C3)ccc2[nH]1	–
–	–	4.4 µM (≈ 1.78 µg/mL)	–	–	1%	–	Cc1ccc(OCC2CN(C(=O)NCc3ccc4[nH]c5c(c4c3)CCCC5)C2)cc1	–
–	–	2.4 µM (≈ 1.06 µg/mL)	–	–	15%	–	Cn1c(C#N)cc2cc(CNC(=O)N3CC(COc4ccc(C(F)(F)F)cc4)C3)ccc21	–
–	–	87.1 µM (≈ 31.5 µg/mL)	–	–	–	58%	O=C1CC2(CN(C(=O)NCc3ccc4[nH]ccc4c3)C2)Oc2ccccc21	–
150 nM	–	1.2 µM (≈ 0.462 µg/mL)	46 µL/min/mg	–	–	–	Cn1ccc2cc(CNC(=O)N3CC(COc4ccc(F)c(F)c4)C3)ccc21	–
270 nM	–	1.8 µM (≈ 0.753 µg/mL)	27 µL/min/mg	–	–	–	Cn1ccc2cc(CNC(=O)N3CC(COc4ccc(C(F)(F)F)nc4)C3)ccc21	–
45 nM	–	0.2 µM (≈ 0.0871 µg/mL)	–	–	–	–	Cn1ccc2cc(CNC(=O)N3CC(COc4ccc(C(F)(F)F)c(F)c4)C3)ccc21	–
460 nM	–	10 µM (≈ 4.1 µg/mL)	–	–	–	–	Cc1[nH]c2ccc(CNC(=O)N3CC4(CC(=O)c5ccccc5O4)C3)cc2c1Cl	–
–	48 µL/min/mg	2.9 µM (≈ 1.3 µg/mL)	43 µL/min/mg	–	30%	–	COCc1cc2cc(CNC(=O)N3CC(COc4ccc(C(F)(F)F)cc4)C3)cnc2[nH]1	–
270 nM	–	45.5 µM (≈ 17.5 µg/mL)	48 µL/min/mg	–	–	–	Cn1ccc2cc(CNC(=O)N3CC(COc4ccc(F)cc4F)C3)ccc21	–
–	56 µL/min/mg	1.9 µM (≈ 0.843 µg/mL)	25 µL/min/mg	–	3%	–	O=C(NCc1ccc2[nH]c(C3CC3)cc2c1)N1CC(COc2ccc(C(F)(F)F)cc2)C1	–
1100 nM	–	86.8 µM (≈ 35.1 µg/mL)	–	–	–	–	O=C(NCc1ccc2[nH]ccc2c1)N1CC(COc2ccc(C(F)(F)F)nc2)C1	–
15 nM	34 µL/min/mg	2 µM (≈ 0.835 µg/mL)	29 µL/min/mg	94 µL/min/mg	–	–	Cc1cc2cc(CNC(=O)N3CC(COc4ccc(C(F)(F)F)cc4)C3)ccc2[nH]1	–

From ChEMBL document CHEMBL5375957, “Optimization of Novel α7 Nicotinic Acetylcholine Receptor Positive Allosteric Modulators and the Discovery of a Preclinical Development Candidate Molecule (RGH-560)” (J Med Chem, 2023)
